Experimental data published in patent US11370801B2, “Pyrrolobenzodiazepine conjugates” (priority 2017, dated 2022).

Experiments:
[1] = in vitro cytotoxicity, picomolar region; cited from earlier work
NCI-N87 = experiment: Therapeutic index: MTD in rat / MED in mouse efficacy model; type: in vivo; settings: ADC of the drug linker
Description: The therapeutic index of each ADC/drug linker was calculated using the following equation: TI=MTD in rat (mg/kg)/MED in mouse efficacy model (mg/kg)

## C=C1C[C@H]2C=Nc3cc(OCCCOc4cc5c(cc4OC)C(=O)N4CC(=C)C[C@H]4C=N5)c(OC)cc3C(=O)N2C1 [SG2000]
[1]
  cytotoxic potency relative to DSB-120: ~9000 fold

## COc1cc2c(cc1OCCCOc1cc3c(cc1OC)C(=O)N1CCC[C@H]1[C@H](O)N3C(=O)OCc1ccc(NC(=O)[C@H](C)NC(=O)[C@@H](NC(=O)CCOCCOCCOCCOCCOCCOCCOCCOCCNC(=O)CCN3C(=O)C=CC3=O)C(C)C)cc1)N=C[C@@H]1CCCN1C2=O [Compound 1, 4-((2S,5S)-37-(2,5-dioxo-2,5-dihydro-1H-pyrrol-1-yl)-5-isopropyl-2-methyl-4,7,35-trioxo-10,13,16,19,22,25,28,31-octaoxa-3,6,34-triazaheptatriacontanamido)benzyl(11S,11aS)-11-hydroxy-7-methoxy-8-(3-(((S)-7-methoxy-5-oxo-2,3,5,11a-tetrahydro-1H-pyrrolo[2,1-c][1,4]benzodiazepin-8-yl)oxy)propoxy)-5-oxo-2,3,11,11a-tetrahydro-1H-pyrrolo[2,1-c][1,4]benzodiazepine-10(5H)-carboxylate]
NCI-N87
  NCI-N87 MED: 6 mg/kg

## COc1cc2c(cc1OCc1cccc(COc3cc4c(cc3OC)C(=O)N3CCC[C@H]3[C@H](O)N4C(=O)OCc3ccc(NC(=O)[C@H](C)NC(=O)[C@@H](NC(=O)CCOCCOCCOCCOCCOCCOCCOCCOCCNC(=O)CCN4C(=O)C=CC4=O)C(C)C)cc3)c1)N=C[C@@H]1CCCN1C2=O [Compound 3, 4-((2S,5S)-37-(2,5-dioxo-2,5-dihydro-1H-pyrrol-1-yl)-5-isopropyl-2-methyl-4,7,35-trioxo-10,13,16,19,22,25,28,31-octaoxa-3,6,34-triazaheptatriacontanamido)benzyl (11S,11aS)-11-hydroxy-7-methoxy-8-((3-((((S)-7-methoxy-5-oxo-2,3,5,11a-tetrahydro-1H-benzo[e]pyrrolo[1,2-a][1,4]diazepin-8-yl)oxy)methyl)benzyl)oxy)-5-oxo-2,3,11,11a-tetrahydro-1H-benzo[e]pyrrolo[1,2-a][1,4]diazepine-10(5H)-carboxylate]
NCI-N87
  NCI-N87 MED: 1 mg/kg

## COc1cc2c(cc1OCCCOc1cc3c(cc1OC)C(=O)N1CCC[C@H]1[C@H](O)N3C(=O)OCc1ccc(NC(=O)[C@H](C)NC(=O)[C@@H](NC(=O)CCOCCOCCOCCOCCOCCOCCOCCOCCNC(=O)CCN3C(=O)C=CC3=O)C(C)C)cc1)N=C[C@@H]1CCCN1C2=O [Compound 2, 4-((2S,5S)-37-(2,5-dioxo-2,5-dihydro-1H-pyrrol-1-yl)-5-isopropyl-2-methyl-4,7,35-trioxo-10,13,16,19,22,25,28,31-octaoxa-3,6,34-triazaheptatriacontanamido)benzyl(11S,11aS)-11-hydroxy-7-methoxy-8-(3-(((S)-7-methoxy-5-oxo-2,3,5,11a-tetrahydro-1H-pyrrolo[2,1-c][1,4]benzodiazepin-8-yl)oxy)propoxy)-5-oxo-2,3,11,11a-tetrahydro-1H-pyrrolo[2,1-c][1,4]benzodiazepine-10(5H)-carboxylate]
NCI-N87
  NCI-N87 MED: 2 mg/kg
